Patent US20130274651A1, “SYSTEM AND METHOD FOR IMPROVING OUTCOME OF CEREBRAL ISCHEMIA” (priority 2012, published 2013)
“Also recorded” adds a separate entry of the source.

Legend:
[1] = CT perfusion scanning in intubated patients with cerebral ischemia treated with intranasal non-inhaled nitric oxide; assay type: in vivo, human
[2] = Cerebral blood flow by cortical laser Doppler during intranasal nitric oxide in intubated rodents; assay type: in vivo
Method: (§1) In intubated rodents, the inventors have shown that cerebral blood flow increases by 100% within 60 minutes of intranasal nitric oxide delivery.

[3] = Carotid artery occlusion model, Speckle laser Doppler, intubated rodents; assay type: in vivo
Method: as §1
Increase in cerebral blood flow is attributable to focal intranasal or intra-oral effect of nitric oxide rather than to systemic absorption of the gas. […] The effect on cerebral blood flow during intranasal delivery of nitric oxide with concomitant air inhalation into the lungs is therefore a focal effect on intranasal and intracranial vasculature attributable specifically to nitric oxide. […] In a non-intubated patient, nitric oxide inhalation can be prevented by occluding the nasal cavity anterior or posterior to the site of gas delivery. This is achieved by means of an anterior occlusion device such a rigid member, an expandable member, a compressible member, a sponge, a porous member, a plug, a balloon, foam and/or combinations of the foregoing, which prevent inhalation through the nostrils while maintaining a high concentration of nitric oxide in the nasal cavity. A non-intubated patient may be allowed to inhale air into the lungs during nitric oxide delivery into the nasal cavity by an optional central lumen with the distal orifice beyond the sites of nasal gas delivery and occlusion device.

[4] = Tolerability of intranasal delivery in humans (normal volunteers); assay type: in vivo, human; details: high concentration
Excerpt: While nitric oxide may be given intranasally and without inhalation into the lungs to intubated, comatose individuals the tolerability of intranasal nitric oxide in awake humans has not previously been investigated. The inventors have tested the effect of nitric oxide in humans (normal volunteers) during intranasal delivery. […] Therefore it can easily be tolerated by awake, non-intubated patients.

SMILES: [N]=O [nitric oxide]
- Cerebral Blood Flow, Changes in ACA Watershed ([1]; Post Rx): Normalization,
- Mean Transit Time, Changes in ACA Watershed ([1]; Post Rx): Normalization
- Mean Transit Time, Left Hemisphere (ischemic) ([1]; Post Rx): 6.0 s
- Mean Transit Time, Right Hemisphere (normal) ([1]; Post Rx): 6.1 s
- Cerebral Blood Flow, increase in perfusion on L (ACA Watershed) ([1]; Post Rx vs Pre Rx, left ischemic hemisphere): 67% increase in
- cerebral perfusion, CT perfusion scanning ([1]; intubated patients / human with focal cerebral ischemia, before vs after treatment): improvement in cerebral perfusion; also recorded: augmentation of cerebral perfusion and normalization of regional perfusion abnormalities
- cerebral blood flow change (FIG. 8) ([2]; cortical laser Doppler, during intranasal administration): doubling of cerebral blood flow
- cerebral blood flow increase ([2]; within 60 minutes of intranasal delivery): 100%
- perfusion in the ischemic hemisphere ([3]; during carotid occlusion and following ligature release): perfusion is improved in the ischemic hemisphere
- cerebral ischemia (FIG. 9) ([3]; intubated rodents, Speckle laser Doppler tracing): reduction of cerebral ischemia
- tolerability of intranasal delivery without inhalation [4]: tolerated at high concentration
